One assay relates to A549 cells. As to the kind of experiment: Apoptotic activity by MTT analysis, A549 cells. The conditions noted are these: 15 μM of the compound, mean±standard deviation; for cytotoxicity at 15 µM: Homo sapiens, A549, 12 h, read-out: Apoptosis (%) A549 cells. The assay is classed as cell-based. As for the experimental part: (§1) Lung cancer cells (A549), colorectal cancer cells (HCT116), HeLa cells, liver cancer cells (HepG2), T-cell leukemia cells (Jurkat), myeloid leukemia cells (K562), breast cancer cells (MCF-7 and MDA-MB-231) and myelocytic leukemia cells ([…]) were obtained from the American Type Culture Collection (ATCC), and cultured in 10% fetal bovine serum (FBS), 50 units/mL penicillin and 50 units/mL streptomycin-added RPMI 1640 (Invitrogen). The cells were maintained in a humidified 37° C., 5% CO2 atmosphere. The anticancer activity was detected by MTT analysis. Each type of cancer cells were plated in triplicate in a 96-well microtiter plate, and cultured at 37° C. for 24 hours. The cells were treated with each of the compounds prepared above at 37° C. for 12 hours. After the culturing of the cells, 10 μL of an MTT reagent ((3-[4,5-dimethyl-2-thiazolyl]-2,5-diphenyl-2H-tetrazoliumbromide) was added to each well, and cultured for 3.5 hours. The absorbance of each sample was detected using a UV microplate reader (SpectraMax 340PC 384, Molecular Devices) at 570 nm. The detection results were measured as a mean value. The effect of each compound on apoptosis is shown in Table 1.
(§2) The A549 and HeLa cells were treated with 15 μM of the compound for 12 hours. The apoptosis was detected using MTT (mean±standard deviation).

Another assay has as its system HeLa cells. As to the kind of experiment: Apoptotic activity by MTT analysis, HeLa cells. The assay is classed as cell-based. Particulars: 15 μM of the compound, mean±standard deviation; for cytotoxicity at 15 µM: Homo sapiens, HeLa, 12 h, read-out: Apoptosis (%) HeLa cells. As for the experimental part:
as §1, §2

In the case of `COc1ccc(-c2nc(-c3ccc4c(c3)-c3ccccc3C4)n(Cc3ccc(C(=N)N)cc3)c2-c2ccc(OC)cc2)cc1` [Example 185, 4-((2-(9H-fluorene-3-yl)-4,5-bis(4-methoxyphenyl)-1H-imidazole-1-yl)methyl)benzimidamide], the figures for the cytotoxicity at 15 µM in the assay on A549 cells and with HeLa cells were 42 ± 1.15% and 42 ± 0.38%, respectively.
For `COc1ccc(-c2nc(-c3cc(C(F)(F)F)cc(C(F)(F)F)c3)n(Cc3ccc(/C(N)=N/O)cc3)c2-c2ccc(OC)cc2)cc1` [Example 186, 4-((2-(3,5-bis(trifluoromethyl)phenyl)-4,5-bis(4-methoxyphenyl)-1H-imidazole-1-yl)methyl)-N′-hydroxybenzimidamide] the same measures were 5 ± 0.38% and 5 ± 0.27%.
For `COc1ccc(-c2nc(-c3cc(C(F)(F)F)cc(C(F)(F)F)c3)n(CCOCCOCCN)c2-c2ccc(OC)cc2)cc1` [Example 187, 2-(2-(2-(2-(3,5-bis(trifluoromethyl)phenyl)-4,5-bis(4-methoxyphenyl)-1H-imidazole-1-yl)ethoxy)ethoxy)ethaneamine] the same measures were 31 ± 0.29% and 12 ± 0.92%.
Consider `NCCOCCOCCNC(=O)c1ccc(Cn2c(-c3cc(C(F)(F)F)cc(C(F)(F)F)c3)nc(-c3ccc(F)cc3)c2-c2ccc(F)cc2)cc1` [Example 188, N-(2-(2-(2-aminoethoxy)ethoxy)ethyl)-4-((2-(3,5-bis(trifluoromethyl)phenyl)-4,5-bis(4-fluorophenyl)-1H-imidazole-1-yl)methyl)benzamide], for which the figures for the cytotoxicity at 15 µM in the assay on A549 cells and with HeLa cells were 12 ± 0.24% and 19 ± 0.65%, respectively.
Turning to `NCCOCCOCCNC(=O)c1ccc(Cn2c(-c3cc(C(F)(F)F)cc(C(F)(F)F)c3)nc(-c3ccc(Cl)cc3)c2-c2ccc(Cl)cc2)cc1` [Example 189, N-(2-(2-(2-aminoethoxy)ethoxy)ethyl)-4-((2-(3,5-bis(trifluoromethyl)phenyl)-4,5-bis(4-chlorophenyl)-1H-imidazole-1-yl)methyl)benzamide], the “Apoptosis (%) A549 cells” value in the assay with A549 cells (12 hours) came to 81 ± 0.45%. In the assay with HeLa cells (12 hours), the “Apoptosis (%) HeLa cells” value is 86 ± 0.64%.
For `COc1ccc(-c2nc(-c3cc(C(F)(F)F)cc(C(F)(F)F)c3)n(Cc3ccc(C(=O)NCCOCCN)cc3)c2-c2ccc(OC)cc2)cc1` [Example 190, N-(2-(2-aminoethoxy)ethyl)-4-((2-(3,5-bis(trifluoromethyl)phenyl)-4,5-bis(4-methoxyphenyl)-1H-imidazole-1-yl)methyl)benzamide], the cytotoxicity at 15 µM with A549 cells turned out to be 72 ± 2.88%; in the assay with HeLa cells it was 87 ± 0.62%.
The corresponding values for `COc1ccc(-c2nc(-c3cc(C(F)(F)F)cc(C(F)(F)F)c3)n(Cc3ccc(C(=O)NCCCCCCN)cc3)c2-c2ccc(OC)cc2)cc1` [Example 191, N-(6-aminohexyl)-4-((2-(3,5-bis(trifluoromethyl)phenyl)-4,5-bis(4-methoxyphenyl)-1H-imidazole-1-yl)methyl)benzamide] are 78 ± 2.43% and 94 ± 1.64%.
The corresponding values for `COc1ccc(-c2nc(-c3cc(C(F)(F)F)cc(C(F)(F)F)c3)n(Cc3ccc(C(=O)NCCCCCCCN)cc3)c2-c2ccc(OC)cc2)cc1` [Example 192, N-(7-aminoheptyl)-4-((2-(3,5-bis(trifluoromethyl)phenyl)-4,5-bis(4-methoxyphenyl)-1H-imidazole-1-yl)methyl)benzamide] are 80 ± 1.78% and 93 ± 0.56%.
For `COc1ccc(-c2nc(-c3cc(C(F)(F)F)cc(C(F)(F)F)c3)n(Cc3ccc(C(=O)NCCCCCCCCN)cc3)c2-c2ccc(OC)cc2)cc1` [Example 193] the same measures were 77 ± 1.65% and 94 ± 1.02%.
As for `COc1ccc(-c2nc(-c3cc(C(F)(F)F)cc(C(F)(F)F)c3)n(Cc3ccc(C(=O)NCCCCCCCCCN)cc3)c2-c2ccc(OC)cc2)cc1` [Example 194], the cytotoxicity at 15 µM in the assay on A549 cells amounted to 80 ± 1.33%; in the assay on HeLa cells it was 84 ± 2.01%.
On to `COc1ccc(-c2nc(-c3cc(C(F)(F)F)cc(C(F)(F)F)c3)n(Cc3ccc(C(=O)NCCOCCOCCO)cc3)c2-c2ccc(OC)cc2)cc1` [Example 195, 4-((2-(3,5-bis(trifluoromethyl)phenyl)-4,5-bis(4-methoxyphenyl)-1H-imidazole-1-yl)methyl)-N-(2-(2-(2-hydroxyethoxy)ethoxy)ethyl)benzamide], for which the values for the cytotoxicity at 15 µM with A549 cells and in the assay with HeLa cells were 86 ± 1.29% and 96 ± 0.98%, respectively.
For `COc1ccc(-c2nc(-c3cc(C(F)(F)F)cc(C(F)(F)F)c3)n(Cc3ccc(C(=O)NCCOCCCOCCN)cc3)c2-c2ccc(OC)cc2)cc1` [Example 196, N-(2-(3-(2-aminoethoxy)propoxy)ethyl)-4-((2-(3,5-bis(trifluoromethyl)phenyl)-4,5-bis(4-methoxyphenyl)-1H-imidazole-1-yl)methyl)benzamide] the same measures were 0% and 0%.
For `COc1ccc(-c2nc(-c3cc(C(F)(F)F)cc(C(F)(F)F)c3)n(Cc3ccc(C(=O)NCCCCCCCCCCN)cc3)c2-c2ccc(OC)cc2)cc1` [Example 197, N-(10-aminodecyl)-4-((2-(3,5-bis(trifluoromethyl)phenyl)-4,5-bis(4-methoxyphenyl)-1H-imidazole-1-yl)methyl)benzamide] the same measures were 96 ± 0.54% and 97 ± 1.22%.
Turning to `COc1ccc(-c2nc(-c3cc(C(F)(F)F)cc(C(F)(F)F)c3)n(Cc3ccc(C(=O)NCCCOCCOCCCN)cc3)c2-c2ccc(OC)cc2)cc1` [Example 198, N-(3-(2-(3-aminopropoxy)ethoxy)propyl)-4-((2-(3,5-bis(trifluoromethyl)phenyl)-4,5-bis(4-methoxyphenyl)-1H-imidazole-1-yl)methyl)benzamide], the cytotoxicity at 15 µM amounted to 80 ± 1.43% in the assay with A549 cells and 83 ± 1.07% in the assay on HeLa cells.
The corresponding values for `COc1ccc(-c2nc(-c3cc(C(F)(F)F)cc(C(F)(F)F)c3)n(Cc3ccc(C(=O)NCCCCCCCCCCCN)cc3)c2-c2ccc(OC)cc2)cc1` [Example 199, N-(11-aminoundecyl)-4-((2-(3,5-bis(trifluoromethyl)phenyl)-4,5-bis(4-methoxyphenyl)-1H-imidazole-1-yl)methyl)benzamide] are 89 ± 1.63% and 93 ± 1.72%.
For `COc1ccc(-c2nc(-c3cc(C(F)(F)F)cc(C(F)(F)F)c3)n(Cc3ccc(C(=O)NCCOCCOCCOCCN)cc3)c2-c2ccc(OC)cc2)cc1` [Example 200, N-(2-(2-(2-(2-aminoethoxy)ethoxy)ethoxy)ethyl)-4-((2-(3,5-bis(trifluoromethyl)phenyl)-4,5-bis(4-methoxyphenyl)-1H-imidazole-1-yl)methyl)benzamide] the same measures were 85 ± 1.44% and 87 ± 0.78%.
